Counter-ions that a name gives are not always drawn.
Legend:
[1] = tested on: RS4;11 leukaemia tumour line; assay: In vitro cytotoxicity (Microculture Tetrazolium Assay, 48 hours); assay type: cell-based; conditions: Homo sapiens, RS4;11 cells, 48 hours exposure, MTT, concentration that inhibits cell viability by 50%, read-out: IC50 (nM) MTT RS4
Procedure: The cytotoxicity studies were carried out on the RS4;11 leukaemia tumour line.
The cells are distributed onto microplates and exposed to the test compounds for 48 hours.

Bcl-2 protein = Bcl-2 protein (Homo sapiens (Human), UniProt P10415); assay: Inhibition of Bcl-2 by the fluorescence polarisation technique; assay type: binding; conditions: fluorescence polarisation test; concentration that inhibits fluorescence polarisation by 50%; read-out: IC50 (nM) Bcl-2 FP
Procedure: The fluorescence polarisation tests were carried out on microplates (384 wells). […] After incubation for 2 hours, the fluorescence polarisation is measured.

Bcl-2 protein, sequence (P10415 whole entry): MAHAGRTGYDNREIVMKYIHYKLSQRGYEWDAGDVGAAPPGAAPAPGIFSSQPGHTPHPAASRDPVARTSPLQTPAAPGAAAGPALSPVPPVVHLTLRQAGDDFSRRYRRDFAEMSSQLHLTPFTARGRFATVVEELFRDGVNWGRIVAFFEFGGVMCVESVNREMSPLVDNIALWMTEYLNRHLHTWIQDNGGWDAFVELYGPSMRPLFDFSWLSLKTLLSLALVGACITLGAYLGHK

| SMILES | IC50 (Bcl-2 protein) [nM] | IC50 [1] [nM] |
| --- | --- | --- |
| CN1CCCc2cc(N(C(=O)c3cc(-c4cc5c(cc4C(=O)N4Cc6ccccc6C[C@H]4CN4CCOCC4)OCCO5)n4c3CCCC4)c3ccc(O)cc3)ccc21 [Example 40, N-(4-Hydroxyphenyl)-N-(1-methyl-1,2,3,4-tetrahydro-6-quinolinyl)-3-{7-[((3S)-3-(4-morpholinylmethyl)-3,4-dihydro-2(1H)-isoquinolinyl)carbonyl]-2,3-dihydro-1,4-benzodioxin-6-yl}-5,6,7,8-tetrahydro-1-indolizine carboxamide hydrochloride] | 15 | 32.2 |
| CN1CCOc2cc(N(C(=O)c3cc(-c4cc5c(cc4C(=O)N4Cc6ccccc6C[C@H]4CN4CCOCC4)OCCO5)n4c3CCCC4)c3ccc(O)cc3)ccc21 [Example 41, N-(4-Hydroxyphenyl)-N-(4-methyl-3,4-dihydro-2H-1,4-benzoxazin-7-yl)-3-{7-[((3S)-3-(4-morpholinylmethyl)-3,4-dihydro-2(1H)-isoquinolinyl)carbonyl]-2,3-dihydro-1,4-benzodioxin-6-yl}-5,6,7,8-tetrahydro-1-indolizine carboxamide hydrochloride] | 26 | 44 |
| Cn1ncc2cc(N(C(=O)c3cc(-c4cc(Cl)ccc4C(=O)N4Cc5ccccc5C[C@H]4CN4CCOCC4)n4c3CCCC4)c3ccc(O)cc3)ccc21 [Example 42, 3-{5-Chloro-2-[((3S)-3-(4-morpholinylmethyl)-3,4-dihydro-2(1H)-isoquinolinyl)carbonyl]phenyl}-N-(4-hydroxyphenyl)-N-(1-methyl-1H-indazol-5-yl)-5,6,7,8-tetrahydro-1-indolizine carboxamide hydrochloride] | 13 | 53.6 |
| Cn1ncc2cc(N(C(=O)c3cc(-c4cc(F)ccc4C(=O)N4Cc5ccccc5C[C@H]4CN4CCOCC4)n4c3CCCC4)c3ccc(O)cc3)ccc21 [Example 44, 3-{5-Fluoro-2-[((3S)-3-(4-morpholinylmethyl)-3,4-dihydro-2(1H)-isoquinolinyl)carbonyl]phenyl}-N-(4-hydroxyphenyl)-N-(1-methyl-1H-indazol-5-yl)-5,6,7,8-tetrahydro-1-indolizine carboxamide hydrochloride] | 14 | 45 |
| CN1CC2(CC2)c2cc(N(C(=O)c3cc(-c4cc(Cl)ccc4C(=O)N4Cc5ccccc5C[C@H]4CN4CCOCC4)n4c3CCCC4)c3ccc(O)cc3)ccc21 [Example 45, 3-{5-Chloro-2-[((3S)-3-(4-morpholinylmethyl)-3,4-dihydro-2(1H)-isoquinolinyl)carbonyl]phenyl}-N-(4-hydroxyphenyl)-N-(1′-methyl-1′,2′-dihydrospiro[cyclopropane-1,3′-indol]-5′-yl)-5,6,7,8-tetrahydro-1-indolizine carboxamide] | 47 | 76.8 |
| Cn1ccc2cc(N(C(=O)c3cc(-c4cc(Cl)ccc4C(=O)N4Cc5ccccc5C[C@H]4CN4CCCOCC4)n4c3CCCC4)c3ccc(O)cc3)ccc21 [Example 46, 3-{5-Chloro-2-[((3S)-3-(1,4-oxazepan-4-ylmethyl)-3,4-dihydro-2(1H)-isoquinolinyl)carbonyl]phenyl}-N-(4-hydroxyphenyl)-N-(1-methyl-1H-indol-5-yl)-5,6,7,8-tetrahydro-1-indolizine carboxamide hydrochloride] | 21 | 56.8 |
| Cn1ccc2cc(N(C(=O)c3cc(-c4cc(C(F)(F)F)ccc4C(=O)N4Cc5ccccc5C[C@H]4CN4CCOCC4)n4c3CCCC4)c3ccc(O)cc3)ccc21 [Example 47, N-(4-Hydroxyphenyl)-N-(1-methyl-1H-indol-5-yl)-3-[2-[((3S)-3-(4-morpholinylmethyl)-3,4-dihydro-2(1H)-isoquinolinyl)carbonyl]-5-(trifluoromethyl)-phenyl]-5,6,7,8-tetrahydro-1-indolizine carboxamide hydrochloride] | 58 | 194 |
| Cn1ccc2cc(N(C(=O)c3cc(-c4cc(OC(F)(F)F)ccc4C(=O)N4Cc5ccccc5C[C@H]4CN4CCOCC4)n4c3CCCC4)c3ccc(O)cc3)ccc21 [Example 48, N-(4-Hydroxyphenyl)-N-(1-methyl-1H-indol-5-yl)-3-[2-[((3S)-3-(4-morpholinylmethyl)-3,4-dihydro-2(1H)-isoquinolinyl)carbonyl]-5-(trifluoromethoxy)-phenyl]-5,6,7,8-tetrahydro-1-indolizine carboxamide hydrochloride] | 130 | 229 |
| CN1CC(C)(C)c2cc(N(C(=O)c3cc(-c4cc(Cl)ccc4C(=O)N4Cc5ccccc5C[C@H]4CN4CCOCC4)n4c3CCCC4)c3ccc(O)cc3)ccc21 [Example 49, 3-{5-Chloro-2-[((3S)-3-(4-morpholinylmethyl)-3,4-dihydro-2(1H)-isoquinolinyl)carbonyl]phenyl}-N-(4-hydroxyphenyl)-N-(1,3,3-trimethyl-2,3-dihydro-1H-indol-5-yl)-5,6,7,8-tetrahydro-1-indolizine carboxamide] | 45 | 169 |

Now from value to compound, other results behind:

| IC50 (Bcl-2 protein) [nM] | SMILES | IC50 [1] [nM] |
| --- | --- | --- |
| 13 | Cl.[2H]C1([2H])Oc2cc(C(=O)N3Cc4ccccc4C[C@H]3CN3CCOCC3)c(-c3cc(C(=O)N(c4ccc(O)cc4)c4ccc5c(cnn5C)c4)c4n3CCCC4)cc2O1 [Example 50, N-(4-Hydroxyphenyl)-N-(1-methyl-1H-indazol-5-yl)-3-{2,2-dideuterio-6-[((3S)-3-(4-morpholinylmethyl)-3,4-dihydro-2(1H)-isoquinolinyl)carbonyl]-1,3-benzodioxol-5-yl}-5,6,7,8-tetrahydro-1-indolizine carboxamide hydrochloride] | 4.01 |
| 32 | Cl.[2H]C1([2H])Oc2cc(C(=O)N3Cc4ccccc4C[C@H]3CN3CCOCC3)c(-c3cc(C(=O)N(c4ccc(O)cc4)c4ccc(C)c(F)c4)c4n3CCCC4)cc2O1 [Example 51, N-(3-Fluoro-4-methylphenyl)-N-(4-hydroxyphenyl)-3-{2,2-dideuterio-6-[((3S)-3-(4-morpholinylmethyl)-3,4-dihydro-2(1H)-isoquinolinyl)carbonyl]-1,3-benzodioxol-5-yl}-5,6,7,8-tetrahydro-1-indolizine carboxamide hydrochloride] | 26 |
| 16 | CN(C)C[C@@H]1Cc2ccccc2CN1C(=O)c1ccc(Cl)cc1-c1cc(C(=O)N(c2ccc(O)cc2)c2ccc3c(ccn3C)c2)c2n1CCCC2 [Example 52, 3-{5-Chloro-2-[((3S)-3-[(dimethylamino)methyl]-3,4-dihydro-2(1H)-isoquinolinyl)carbonyl]phenyl}-N-(4-hydroxyphenyl)-N-(1-methyl-1H-indol-5-yl)-5,6,7,8-tetrahydro-1-indolizine carboxamide hydrochloride] | 19.8 |
| 180 | COc1ccc(N(C(=O)c2cc(-c3cc(Cl)ccc3C(=O)N3Cc4ccccc4C[C@H]3CN3CCOCC3)n3c2CCCC3)c2ccc(O)cc2)cc1C(F)(F)F [Example 53, 3-{5-Chloro-2-[((3S)-3-(4-morpholinylmethyl)-3,4-dihydro-2(1H)-isoquinolinyl)carbonyl]phenyl}-N-(4-hydroxyphenyl)-N-[4-methoxy-3-(trifluoro-methyl)phenyl]-5,6,7,8-tetrahydro-1-indolizine carboxamide hydrochloride] | 138 |
| 180 | CSc1ccc(N(C(=O)c2cc(-c3cc(Cl)ccc3C(=O)N3Cc4ccccc4C[C@H]3CN3CCOCC3)n3c2CCCC3)c2ccc(O)cc2)cc1C(F)(F)F [Example 54, 3-{5-Chloro-2-[((3S)-3-(4-morpholinylmethyl)-3,4-dihydro-2(1H)-isoquinolinyl)carbonyl]phenyl}-N-(4-hydroxyphenyl)-N-[4-(methylsulphanyl)-3-(trifluoromethyl)phenyl]-5,6,7,8-tetrahydro-1-indolizine carboxamide hydrochloride] | 106 |
| 34 | Cn1ccc2cc(N(C(=O)c3cc(-c4cc(Cl)ccc4C(=O)N4Cc5ccccc5C[C@H]4CN4CCOCC4)n4c3CCCC4)c3ccc(O)c(F)c3)ccc21 [Example 55, 3-{5-Chloro-2-[((3S)-3-(4-morpholinylmethyl)-3,4-dihydro-2(1H)-isoquinolinyl)carbonyl]phenyl}-N-(3-fluoro-4-hydroxyphenyl)-N-(1-methyl-1H-indol-5-yl)-5,6,7,8-tetrahydro-1-indolizine carboxamide hydrochloride] | 19.4 |
| 12 | CN1CCN(C[C@@H]2Cc3ccccc3CN2C(=O)c2cc3c(cc2-c2cc(C(=O)N(c4ccc(O)cc4)c4ccc5c(ccn5C)c4)c4ccccn24)OCO3)CC1 [Example 57, N-(4-Hydroxyphenyl)-N-(1-methyl-1H-indol-5-yl)-3-{6-[((3S)-3-[(4-methyl-1-piperazinyl)methyl]-3,4-dihydro-2(1H)-isoquinolinyl)carbonyl]-1,3-benzodioxol-5-yl}-1-indolizine carboxamide bis(hydrochloride)] | 8.62 |
| 19 | CCn1ccc2cc(N(C(=O)c3cc(-c4cc5c(cc4C(=O)N4Cc6ccccc6C[C@H]4CN4CCOCC4)OCO5)n4ccccc34)c3ccc(O)cc3)ccc21 [Example 60, N-(1-Ethyl-1H-indol-5-yl)-N-(4-hydroxyphenyl)-3-{6-[((3S)-3-(4-morpholinylmethyl)-3,4-dihydro-2(1H)-isoquinolinyl)carbonyl]-1,3-benzodioxol-5-yl}-1-indolizine carboxamide hydrochloride] | 11.7 |
| 22 | CN1CCc2cc(N(C(=O)c3cc(-c4cc5c(cc4C(=O)N4Cc6ccccc6C[C@H]4CN4CCOCC4)OCO5)n4ccccc34)c3ccc(O)cc3)ccc21 [Example 61, N-(4-Hydroxyphenyl)-N-(1-methyl-2,3-dihydro-1H-indol-5-yl)-3-{6-[((3S)-3-(4-morpholinylmethyl)-3,4-dihydro-2(1H)-isoquinolinyl)carbonyl]-1,3-benzodioxol-5-yl}-1-indolizine carboxamide hydrochloride] | 14.5 |
